# From article PMC9005971, “Discovery of 2-(4-Acrylamidophenyl)-Quinoline-4-Carboxylic Acid Derivatives as Potent SIRT3 Inhibitors” (Frontiers in Chemistry, 2022)
# Experiments:
# SEM cells = assay: In vitro antiproliferative CCK-8 assay, SEM; type: cell-based; conditions: 72 h, read-out: IC50 growth inhibition SEM
# Protocol: (§1) The proliferation of THP-1, MOLM-13, SEM and MV4-11 cells was tested by CCK-8 assay. Briefly, cells were seeded in 96-well plate with about 5 × 10^3 cells in each well. The cells were treated with P6 or Ara-C (0–10 µM) after 24 h of incubation. CCK-8 reagent ([…]) was added to each well after 72 h of incubation, and cells were incubated at 37°C for 4 h. The light absorbance at 450 nm was measured by using an Opsys microplate reader (Dynex Technologirs, Chantilly, VA, United States). Results are illustrated as percent of cell viability normalized to DMSO-treated control cells.
# MOLM-13 cells = assay: In vitro antiproliferative CCK-8 assay, MOLM-13; type: cell-based; conditions: Homo sapiens, 72 h, read-out: IC50 growth inhibition MOLM-13
# Protocol: as §1
# MV4-11 cells = assay: In vitro antiproliferative CCK-8 assay, MV4-11; type: cell-based; conditions: Homo sapiens, 72 h, read-out: IC50 growth inhibition MV4-11
# Protocol: as §1
# [1] = system: THP-1, MOLM-13, SEM and MV4-11 cells; assay: Cell apoptosis analysis, MLLr leukemic cells; type: cell-based; conditions: 72 h, flow cytometry
# Protocol: THP-1, MOLM-13, SEM and MV4-11 cells were treated with P6 (0.45–4 µM) or Ara-C (0.1–2.0 µM) for 72 h, collected and resuspended in 1× binding buffer. Cells were incubated with FITC Annexin V and PI double labeling for 30 min in the dark at room temperature and measured by flow cytometry.
# THP-1 cells = assay: In vitro antiproliferative CCK-8 assay, THP-1; type: cell-based; conditions: Homo sapiens; for inhibition at 1 µM: dose of 1 μM, mean of three experiments, read-out: THP-1 percentage inhibitory rate
# Protocol: as §1
# SIRT2 = target: T1, SIRT2 (Homo sapiens, UniProt Q8IXJ6); conditions: ref Galli et al., 2012; cited from earlier work
# T1 sequence (Q8IXJ6 1-389): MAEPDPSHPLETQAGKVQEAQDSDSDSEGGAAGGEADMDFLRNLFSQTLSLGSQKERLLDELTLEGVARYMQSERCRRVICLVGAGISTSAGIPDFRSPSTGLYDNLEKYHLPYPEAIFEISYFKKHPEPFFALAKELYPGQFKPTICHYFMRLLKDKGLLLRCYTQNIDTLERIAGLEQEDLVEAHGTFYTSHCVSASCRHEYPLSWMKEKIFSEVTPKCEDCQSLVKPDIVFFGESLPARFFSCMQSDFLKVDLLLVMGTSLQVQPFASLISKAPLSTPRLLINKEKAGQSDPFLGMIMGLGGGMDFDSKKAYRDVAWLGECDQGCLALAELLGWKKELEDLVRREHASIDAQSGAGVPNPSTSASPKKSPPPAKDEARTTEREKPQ
# SIRT1 = target: T2, SIRT1 (Homo sapiens, UniProt Q96EB6); conditions: ref Galli et al., 2012; cited from earlier work
# T2 sequence (Q96EB6 1-747): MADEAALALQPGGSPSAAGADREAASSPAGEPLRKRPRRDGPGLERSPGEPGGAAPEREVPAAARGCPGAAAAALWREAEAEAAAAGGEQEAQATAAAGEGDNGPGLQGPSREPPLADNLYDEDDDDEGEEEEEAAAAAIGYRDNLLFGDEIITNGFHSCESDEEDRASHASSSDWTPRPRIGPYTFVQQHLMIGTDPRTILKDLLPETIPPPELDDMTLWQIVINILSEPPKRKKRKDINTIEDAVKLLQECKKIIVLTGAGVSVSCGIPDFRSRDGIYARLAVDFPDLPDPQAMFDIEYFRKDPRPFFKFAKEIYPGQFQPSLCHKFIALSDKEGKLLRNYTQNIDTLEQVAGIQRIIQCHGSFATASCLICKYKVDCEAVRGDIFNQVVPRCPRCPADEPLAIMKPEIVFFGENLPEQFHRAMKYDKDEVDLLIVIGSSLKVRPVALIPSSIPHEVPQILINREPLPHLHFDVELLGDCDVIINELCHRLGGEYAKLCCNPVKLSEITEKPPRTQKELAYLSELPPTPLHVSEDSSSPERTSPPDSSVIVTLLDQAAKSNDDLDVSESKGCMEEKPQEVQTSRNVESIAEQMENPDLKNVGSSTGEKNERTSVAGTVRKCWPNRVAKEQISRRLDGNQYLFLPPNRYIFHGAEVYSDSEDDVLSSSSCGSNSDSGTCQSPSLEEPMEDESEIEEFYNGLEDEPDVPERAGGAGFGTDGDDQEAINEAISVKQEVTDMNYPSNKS
# SIRT3 = target: T3, SIRT3 (Homo sapiens, UniProt Q9NTG7); assay: SIRT3 enzyme inhibitory assay (fluorescence); type: biochemical; conditions: dose of 10 μM; mean of three experiments; read-out: SIRT3 percentage inhibitory rate
# T3 sequence (Q9NTG7 1-399): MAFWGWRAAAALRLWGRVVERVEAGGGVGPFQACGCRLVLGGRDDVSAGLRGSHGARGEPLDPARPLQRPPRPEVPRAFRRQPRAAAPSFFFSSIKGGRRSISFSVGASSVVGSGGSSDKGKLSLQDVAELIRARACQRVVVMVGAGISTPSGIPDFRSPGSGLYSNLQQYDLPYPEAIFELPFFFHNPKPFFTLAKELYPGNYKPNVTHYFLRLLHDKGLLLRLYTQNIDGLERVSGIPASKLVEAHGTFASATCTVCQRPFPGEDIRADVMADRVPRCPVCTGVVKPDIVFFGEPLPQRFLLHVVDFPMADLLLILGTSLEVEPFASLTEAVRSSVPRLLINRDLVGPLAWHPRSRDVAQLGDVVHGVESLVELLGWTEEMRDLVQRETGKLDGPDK
# Protocol: All of the enzymatic reactions were conducted at 37°C for 30 min. […] The compounds were diluted in 10% DMSO and 5 ul of the dilution was added to each reaction mixture (50 ul). The assay was performed by quantitating the amount of fluorescent product generated from the enzyme reaction. Fluorescence intensity is then analyzed at excitation wavelength of 350–360 nm and emission wavelength of 450–460 nm on a SpectraMax M5 microtiter plate reader. The IC50 values were calculated using Prism GraphPad software.
inhibition at 10 µM (SIRT3) [%],Structure (SMILES),inhibition at 1 µM (THP-1 cells) [%],also measured
29.6 ± 1.43,"C=CC(=O)Nc1ccc(-c2cc(C(=O)Nc3ccc(OCC)cc3)c3ccccc3n2)cc1 [Compound P17, 2-(4-Acryloylamino-phenyl)-quinoline-4-carboxylic acid (4-ethoxy-phenyl)-amide]",13.8 ± 1.01,
30.6 ± 2.89,"C=CC(=O)Nc1ccc(-c2cc(C(=O)Nc3ccc(CCCCC)cc3)c3ccccc3n2)cc1 [Compound P18, 2-(4-Acryloylamino-phenyl)-quinoline-4-carboxylic acid (4-pentyl-phenyl)-amide]",30 ± 1.39,
45.1 ± 2.55,"C=CC(=O)Nc1ccc(-c2cc(C(=O)Nc3ccc4c(c3)OCO4)c3ccccc3n2)cc1 [Compound P20, 2-(4-Acryloylamino-phenyl)-quinoline-4-carboxylic acid benzo [1,3]dioxol-5-ylamide]",28.1 ± 1.76,
22.2 ± 1.72,"C=CC(=O)Nc1ccc(-c2cc(C(=O)Nc3cccc(OC)c3)c3ccccc3n2)cc1 [Compound P21, 2-(4-Acryloylamino-phenyl)-quinoline-4-carboxylic acid (3-methoxy-phenyl)-amide]",35.4 ± 1.58,

# Further lines, the compound ahead of its results:
Structure (SMILES),inhibition at 10 µM (SIRT3) [%],inhibition at 1 µM (THP-1 cells) [%],also measured
"Nc1ccn([C@@H]2O[C@H](CO)[C@@H](O)[C@@H]2O)c(=O)n1 [Ara-C, Cytarabine, reference compound]",,80.4 ± 3.22,"IC50 (SEM cells): 60 nM; IC50 (MOLM-13 cells): 60 nM; IC50 (MV4-11 cells): 540 nM; induction of apoptosis [1]: obvious apoptosis; IC50 (THP-1 cells; 72 h, CCK-8, read-out: IC50 growth inhibition THP-1): 520 nM"
c1cncc(-c2c[nH]nn2)c1 [Compound 3-TYP],,,IC50 (SIRT2): 92 nM; IC50 (SIRT1): 88 nM
"C=CC(=O)Nc1ccc(-c2cc(C(=O)Nc3ccc(OC)cc3)c3ccccc3n2)cc1 [Compound P16, 2-(4-Acryloylamino-phenyl)-quinoline-4-carboxylic acid (4-methoxy-phenyl)-amide]",28.4 ± 1.85,13.3 ± 1.23,
